Legend:
[1] = system: hTERT HAEC; test: NO production by hTERT HAEC in 3D scaffolds (conditioned media, Seivers NO analyzer); assay type: cell-based, human; conditions: 1 μM, 30 minutes; HAEC growing 2 months in 3D scaffolds
Method: Endothelial cells have many functions including the production of nitric oxide (NO). NO is a vasoactive agent important for modulating the vascular smooth muscle tone (Davidge, S. T., et al., Circ Res 1995, 77 (2), 274-83). The confluent cells growing for 2 months in the tubes were tested for NO production to determine endothelial function and viability. To qualitatively assess the NO production, 50 μL of the conditioned-media was analyzed using Seivers NO analyzer. FIGS. 13A-13C show NO production by hTERT HAEC with and without calcium ionophore stimulation. A 7- to 35-fold increase of NO was observed when HAEC growing in 3D scaffolds was stimulated with 1 μM A23187 calcium ionophore for 30 minutes. Others have reported twofold NO increase after 60-minute incubation of HAEC in 1 μM ionomycin grown on well plates (Cosentino, F., et al., Circulation 1997, 96 (1), 25-8). Using bovine coronary microvascular endothelial cells, a 3-fold increase was observed when stimulated with 1 μM A23187 calcium ionophore for 5 hours (Davidge, S. T., et al., Circ Res 1995, 77 (2), 274-83). […] There is difficulty in direct comparison of results with reported observations due to differences in methodology, analysis, and cell types. […] The higher increase in NO production warrants further investigation if 3D geometry affects HAEC NO production. […]

[2] = system: bovine coronary microvascular endothelial cells; conditions: 1 μM, 5 hours; cited from earlier work
[3] = system: fibroblasts; conditions: 100 µM; cited from earlier work
[4] = cited from earlier work
[5] = system: HAEC; conditions: 1 μM, 60-minute incubation; HAEC on well plates; cited from earlier work
[6] = system: HPASMC; test: Contractility of aligned HPASMC on microwrinkled PDMS; assay type: cell-based, human; conditions: 1 μM, 10 minutes
Method: HPASMC cultivated on microwrinkled PDMS were treated with angiotensin ii (1 μM) and serial phase images were taken (1, 3, 10 minutes, from left to right) to assess cell contraction. […] Scale bar=50 μm.
A 6 μm PDMS film was stretched by 20% with a uniaxial stretching system, followed by exposure to oxygen plasma (Plasma Etcher Inc.) at 80 W for 60 minutes to generate wrinkles (FIG. 1A-FIG. 1C and FIG. 16). […] To test the contractility of aligned HPASMC, HPASMC were exposed to angiotensin II (1 μM; Sigma Aldrich, St. Louis, Mo.) for 10 minutes. […] A more quantitative measurement of SMC contraction is employed as described in the Experimental Design section.

[7] = system: human coronary artery endothelial cells; conditions: 20 ng/mL; cited from earlier work

In the case of `CNc1ccc2oc(C[C@H]3O[C@@]4(CC[C@H]3C)O[C@H]([C@H](C)C(=O)c3ccc[nH]3)[C@H](C)C[C@H]4C)nc2c1C(=O)O` [A23187], the “increase of NO” value [1] is listed as 7- to 35 fold and the NO increase [2] is listed as 3 fold.
In the case of `COc1ccccc1Oc1c(NS(=O)(=O)c2ccc(C(C)(C)C)cc2)nc(-c2ncccn2)nc1OCCO` [Bosentan], the proliferation in fibroblasts [3] is listed as “altered” and the “smooth muscle alpha actin expression in fibroblasts” value [3] is listed as “altered”.
For `CCCCC[C@H](O)/C=C/[C@@H]1[C@H]2C/C(=C/CCCC(=O)O)O[C@H]2C[C@H]1O` [Prostacyclin], the half-life [4] is given as 3 to 5 min.
For `C[C@H](CCC(=O)O)C[C@H](C)C[C@H](C)C(=O)/C=C(\O)[C@H](C)C[C@H](C)C/C=C/[C@@H](C)[C@@H](O)[C@@H](C)[C@@H](O)C[C@@H]1CC[C@@](C)([C@H]2CC[C@@](C)([C@@H](C)O)O2)O1` [ionomycin], the NO increase [5] is listed as “twofold”.
In the case of “angiotensin II (DRVYIHPF; Angiotensin-2; UniProt P01019 25-32, looked up) [contractile agent (Sigma Aldrich)]”, the “cell contraction of aligned HPASMC” value [6] was “time-dependent contraction”.
For hepatocyte growth factor, the NO increase [7] is given as “twofold”.
